Data on 1 compound can be found in article PMC5218480 (PLoS ONE, 2017).

The test system of this experiment is MV-4-11 cells. The experiment can be described thus: Gene expression microarray analysis (Affymetrix PrimeView) and GSEA. The format is cell-based, human. More on the design: RFU PODN (11730768_x_at) / Fold change /veh PODN (11730768_x_at) / RFU LINC00158 (11744669_a_at) / Fold change /veh LINC00158 (11744669_a_at) / RFU DUSP10 (11751237_a_at) / Fold change /veh DUSP10 (11751237_a_at) / RFU ID3 (11757404_x_at) / Fold change /veh ID3 (11757404_x_at) / RFU PLEKHG5 (11737974_s_at) / Fold change /veh PLEKHG5 (11737974_s_at) / RFU LRRC4B (11730491_at) / Fold change /veh LRRC4B (11730491_at) / RFU GIMAP4 (11747438_a_at) / Fold change /veh GIMAP4 (11747438_a_at) / RFU KRT8 (11758183_x_at) / Fold change /veh KRT8 (11758183_x_at) / RFU CNN1 (11734310_a_at) / Fold change /veh CNN1 (11734310_a_at) / RFU VPS37D (11726825_at) / Fold change /veh VPS37D (11726825_at) / RFU C10orf10 (11716522_x_at) / Fold change /veh C10orf10 (11716522_x_at) / RFU KIR2DL2 /// KIR2DL4 /// KIR2DL5A /// KIR2DL5B /// KIR2DS1 /// KIR2DS2 /// KIR2DS3 /// KIR2DS4 /// KIR3DL3 /// KIR3DL3 /// KIR3DS1 (11738374_at) / Fold change /veh KIR2DL2 /// KIR2DL4 /// KIR2DL5A /// KIR2DL5B /// KIR2DS1 /// KIR2DS2 /// KIR2DS3 /// KIR2DS4 /// KIR3DL3 /// KIR3DL3 /// KIR3DS1 (11738374_at) / RFU C1QL1 (11718748_at) / Fold change /veh C1QL1 (11718748_at) / RFU TMPRSS4 (11747572_a_at) / Fold change /veh TMPRSS4 (11747572_a_at) / RFU HAMP (11756126_x_at) / Fold change /veh HAMP (11756126_x_at) / RFU RNFT2 (11725882_a_at) / Fold change /veh RNFT2 (11725882_a_at) / RFU NR4A2 (11747474_a_at) / Fold change /veh NR4A2 (11747474_a_at) / RFU ABCC12 (11746883_a_at) / Fold change /veh ABCC12 (11746883_a_at) / RFU TMEM136 (11760407_x_at) / Fold change /veh TMEM136 (11760407_x_at) / RFU CLDN22 /// WWC2 (11732394_at) / Fold change /veh CLDN22 /// WWC2 (11732394_at) / RFU HLA-DPB1 (11760878_x_at) / Fold change /veh HLA-DPB1 (11760878_x_at) / RFU SPINT1 (11716480_a_at) / Fold change /veh SPINT1 (11716480_a_at) / RFU GAP43 (11754022_s_at) / Fold change /veh GAP43 (11754022_s_at) / RFU A4GNT (11735810_at) / Fold change /veh A4GNT (11735810_at) / RFU PRB3 (11715151_x_at) / Fold change /veh PRB3 (11715151_x_at) / RFU TUBB4B (11761932_at) / Fold change /veh TUBB4B (11761932_at) / RFU CAPN14 (11732068_a_at) / Fold change /veh CAPN14 (11732068_a_at) / RFU TMCC2 (11721928_a_at) / Fold change /veh TMCC2 (11721928_a_at) / RFU IRGQ (11745062_a_at) / Fold change /veh IRGQ (11745062_a_at) / RFU FAM174B (11720279_a_at) / Fold change /veh FAM174B (11720279_a_at) / RFU TMPRSS4 (11748680_a_at) / Fold change /veh TMPRSS4 (11748680_a_at) / RFU FAM212B (11763350_a_at) / Fold change /veh FAM212B (11763350_a_at) / RFU PLEKHG5 (11743358_a_at) / Fold change /veh PLEKHG5 (11743358_a_at) / RFU ZSCAN30 (11745921_a_at) / Fold change /veh ZSCAN30 (11745921_a_at) / RFU CMKLR1 (11741424_a_at) / Fold change /veh CMKLR1 (11741424_a_at) / RFU LOC101060620 /// MAPK8IP1 (11723275_at) / Fold change /veh LOC101060620 /// MAPK8IP1 (11723275_at) / RFU SPTSSB (11747773_x_at) / Fold change /veh SPTSSB (11747773_x_at) / RFU PRSS12 (11739890_at) / Fold change /veh PRSS12 (11739890_at) / RFU BIN1 (11741810_x_at) / Fold change /veh BIN1 (11741810_x_at) / RFU WNT11 (11732464_a_at) / Fold change /veh WNT11 (11732464_a_at) / RFU C10orf10 (11716521_a_at) / Fold change /veh C10orf10 (11716521_a_at) / RFU C5orf56 (11738089_at) / Fold change /veh C5orf56 (11738089_at) / RFU CYB561 (11721691_x_at) / Fold change /veh CYB561 (11721691_x_at) / RFU ANKRD19P (11752326_a_at) / Fold change /veh ANKRD19P (11752326_a_at) / RFU OR2T12 /// OR2T33 /// OR2T8 (11738714_s_at) / Fold change /veh OR2T12 /// OR2T33 /// OR2T8 (11738714_s_at) / RFU VCAN (11748164_a_at) / Fold change /veh VCAN (11748164_a_at) / RFU JSRP1 (11732532_at) / Fold change /veh JSRP1 (11732532_at) / RFU KRTAP10-11 (11738290_x_at) / Fold change /veh KRTAP10-11 (11738290_x_at) / RFU MYO3A (11730013_a_at) / Fold change /veh MYO3A (11730013_a_at) / RFU EBF3 (11725865_a_at) / Fold change /veh EBF3 (11725865_a_at) / RFU CAMK2N1 (11719241_x_at) / Fold change /veh CAMK2N1 (11719241_x_at) / RFU C5orf56 (11738088_a_at) / Fold change /veh C5orf56 (11738088_a_at) / RFU OLFML3 (11715873_a_at) / Fold change /veh OLFML3 (11715873_a_at) / RFU LOC100653217 /// NTM (11731650_a_at) / Fold change /veh LOC100653217 /// NTM (11731650_a_at) / RFU MAPK11 (11762145_a_at) / Fold change /veh MAPK11 (11762145_a_at) / RFU FIZ1 (11724087_x_at) / Fold change /veh FIZ1 (11724087_x_at) / RFU OASL (11726364_x_at) / Fold change /veh OASL (11726364_x_at) / RFU SOX15 (11748057_x_at) / Fold change /veh SOX15 (11748057_x_at) / RFU CD79A (11719716_a_at) / Fold change /veh CD79A (11719716_a_at) / RFU HIST1H1D (11736915_at) / Fold change /veh HIST1H1D (11736915_at) / RFU CASKIN2 (11723855_a_at) / Fold change /veh CASKIN2 (11723855_a_at) / RFU LOC730098 (11760151_x_at) / Fold change /veh LOC730098 (11760151_x_at) / RFU OR4N2 (11742367_at) / Fold change /veh OR4N2 (11742367_at) / RFU PRRT2 (11749266_a_at) / Fold change /veh PRRT2 (11749266_a_at) / RFU SNX32 (11753110_a_at) / Fold change /veh SNX32 (11753110_a_at) / RFU CDHR5 (11726645_a_at) / Fold change /veh CDHR5 (11726645_a_at) / RFU RCAN1 (11760418_a_at) / Fold change /veh RCAN1 (11760418_a_at) / RFU FAM167A (11723789_a_at) / Fold change /veh FAM167A (11723789_a_at) / RFU FAM26E (11764081_at) / Fold change /veh FAM26E (11764081_at) / RFU ISYNA1 (11749810_s_at) / Fold change /veh ISYNA1 (11749810_s_at) / RFU ACY1 (11761880_at) / Fold change /veh ACY1 (11761880_at) / RFU 11764098_at / Fold change /veh 11764098_at / RFU SAMD14 (11745864_x_at) / Fold change /veh SAMD14 (11745864_x_at) / RFU NPB (11741838_a_at) / Fold change /veh NPB (11741838_a_at) / RFU TMPRSS6 (11731388_a_at) / Fold change /veh TMPRSS6 (11731388_a_at) / RFU KRTAP10-2 (11738614_at) / Fold change /veh KRTAP10-2 (11738614_at) / RFU ARHGAP8 /// PRR5-ARHGAP8 (11727945_x_at) / Fold change /veh ARHGAP8 /// PRR5-ARHGAP8 (11727945_x_at) / RFU KRTAP5-7 /// NADSYN1 (11734609_at) / Fold change /veh KRTAP5-7 /// NADSYN1 (11734609_at) / RFU RASL12 (11751679_a_at) / Fold change /veh RASL12 (11751679_a_at) / RFU CDKN2B (11736163_a_at) / Fold change /veh CDKN2B (11736163_a_at) / RFU PRF1 (11729649_at) / Fold change /veh PRF1 (11729649_at) / RFU, ZNF638 /// ZNF638-IT1 / Fold change vs veh, ZNF638 /// ZNF638-IT1 / RFU, PANK3 / Fold change vs veh, PANK3 / RFU, SH3YL1 / Fold change vs veh, SH3YL1 / RFU, ZEB2 / Fold change vs veh, ZEB2 / RFU, NRIP1 / Fold change vs veh, NRIP1 / RFU, PTTG1IP / Fold change vs veh, PTTG1IP / RFU, CAPN2 / Fold change vs veh, CAPN2 / RFU, MED14 / Fold change vs veh, MED14 / RFU, SNORA58 / Fold change vs veh, SNORA58 / RFU, C1orf63 / Fold change vs veh, C1orf63 / RFU, LRRFIP1 / Fold change vs veh, LRRFIP1 / RFU, NDUFAF7 / Fold change vs veh, NDUFAF7 / RFU, SLC12A2 / Fold change vs veh, SLC12A2 / RFU, IBTK / Fold change vs veh, IBTK / RFU, ESF1 / Fold change vs veh, ESF1 / Fold change vs veh, TMEM50B / RFU, TAOK1 / Fold change vs veh, TAOK1 / RFU, ACBD3 / Fold change vs veh, ACBD3 / RFU, TMA16 / Fold change vs veh, TMA16 / RFU, RWDD3 / Fold change vs veh, RWDD3 / RFU, BCAT1 / Fold change vs veh, BCAT1 / RFU, EDEM3 / Fold change vs veh, EDEM3 / RFU, TMEM33 / Fold change vs veh, TMEM33 / RFU, WDR75 / Fold change vs veh, WDR75 / RFU, AHCTF1 / Fold change vs veh, AHCTF1 / RFU, TFRC / Fold change vs veh, TFRC / RFU, ZDHHC17 / Fold change vs veh, ZDHHC17 / RFU, NOM1 / Fold change vs veh, NOM1 / RFU, ARL8B / Fold change vs veh, ARL8B / RFU, ZBTB11 / Fold change vs veh, ZBTB11 / RFU, TAMM41 / Fold change vs veh, TAMM41 / RFU, KIAA1704 /// LOC100996395 / Fold change vs veh, KIAA1704 /// LOC100996395 / RFU, ING1 / Fold change vs veh, ING1 / RFU, TRMT61B / Fold change vs veh, TRMT61B / RFU, FUBP3 / Fold change vs veh, FUBP3 / RFU, TP53 / Fold change vs veh, TP53 / RFU, TNKS2 / Fold change vs veh, TNKS2 / RFU, ZFP14 / Fold change vs veh, ZFP14 / RFU, ACTR2 / Fold change vs veh, ACTR2 / RFU, PPP3R1 / Fold change vs veh, PPP3R1 / RFU, PIK3R1 / Fold change vs veh, PIK3R1 / RFU, HNRNPA1 / Fold change vs veh, HNRNPA1 / RFU, RNF170 / Fold change vs veh, RNF170 / RFU, ZNF28 / Fold change vs veh, ZNF28 / RFU, RNGTT / Fold change vs veh, RNGTT / RFU, OGT / Fold change vs veh, OGT / RFU, BRD1 / Fold change vs veh, BRD1 / RFU, MARS / Fold change vs veh, MARS / RFU, ZNF655 / Fold change vs veh, ZNF655 / RFU, FAHD1 / Fold change vs veh, FAHD1 / RFU, BDP1 / Fold change vs veh, BDP1 / RFU, LRRCC1 / Fold change vs veh, LRRCC1 / RFU, ARID1A / Fold change vs veh, ARID1A / RFU, ZNF146 / Fold change vs veh, ZNF146 / RFU, ZNF330 / Fold change vs veh, ZNF330 / RFU, GPN3 / Fold change vs veh, GPN3 / RFU, C9orf123 / Fold change vs veh, C9orf123 / RFU, N4BP2L2 / Fold change vs veh, N4BP2L2 / RFU, ARFIP1 / Fold change vs veh, ARFIP1 / RFU, FAM179B / Fold change vs veh, FAM179B / RFU, BCL10 / Fold change vs veh, BCL10 / RFU, UHRF1BP1L / Fold change vs veh, UHRF1BP1L / RFU, BET1 / Fold change vs veh, BET1 / RFU, CNOT2 / Fold change vs veh, CNOT2 / RFU, ZNF268 / Fold change vs veh, ZNF268 / Fold change vs veh, ZNF507 / RFU, DGCR2 / Fold change vs veh, DGCR2 / RFU, WDSUB1 / Fold change vs veh, WDSUB1 / Fold change vs veh, HSP90B1 /// MIR3652 / RFU, ADSS / Fold change vs veh, ADSS / RFU, GK / Fold change vs veh, GK / RFU, ZNF148 / Fold change vs veh, ZNF148 / RFU, TAF9 / Fold change vs veh, TAF9 / RFU, SLC1A5 / Fold change vs veh, SLC1A5 / RFU, SLMO2 / Fold change vs veh, SLMO2 / RFU, ABCC4 / Fold change vs veh, ABCC4 / RFU, LOC101060439 /// RAP1B / Fold change vs veh, LOC101060439 /// RAP1B / RFU, RFX7 / Fold change vs veh, RFX7 / RFU, GTPBP10 / Fold change vs veh, GTPBP10 / RFU, CNEP1R1 / Fold change vs veh, CNEP1R1 / RFU, BIVM-ERCC5 /// ERCC5 / Fold change vs veh, BIVM-ERCC5 /// ERCC5 / RFU, ILF3 / Fold change vs veh, ILF3 / RFU 11762660_at / Fold change /veh 11762660_at / RFU VCAN (11757783_s_at) / Fold change /veh VCAN (11757783_s_at) / RFU DDX43 (11728927_at) / Fold change /veh DDX43 (11728927_at) / RFU KRT8 (11758188_x_at) / Fold change /veh KRT8 (11758188_x_at) / RFU NKD1 (11759106_at) / Fold change /veh NKD1 (11759106_at) / RFU SRD5A1 (11742802_a_at) / Fold change /veh SRD5A1 (11742802_a_at) / RFU TPSAB1 /// TPSB2 (11721975_s_at) / Fold change /veh TPSAB1 /// TPSB2 (11721975_s_at) / RFU GSTM3 (11746129_a_at) / Fold change /veh GSTM3 (11746129_a_at) / RFU IL23R (11737362_x_at) / Fold change /veh IL23R (11737362_x_at) / RFU TMEM51 (11727254_a_at) / Fold change /veh TMEM51 (11727254_a_at) / RFU PIWIL2 (11732686_x_at) / Fold change /veh PIWIL2 (11732686_x_at) / RFU ORM1 (11744905_x_at) / Fold change /veh ORM1 (11744905_x_at) / RFU CCDC152 (11743942_at) / Fold change /veh CCDC152 (11743942_at) / RFU ECM1 (11717891_a_at) / Fold change /veh ECM1 (11717891_a_at) / RFU IL23R (11748794_a_at) / Fold change /veh IL23R (11748794_a_at) / RFU TNFAIP8L3 (11732012_x_at) / Fold change /veh TNFAIP8L3 (11732012_x_at) / RFU MBOAT4 (11741988_at) / Fold change /veh MBOAT4 (11741988_at) / RFU 11764193_at / Fold change /veh 11764193_at / RFU TMEM53 (11763286_at) / Fold change /veh TMEM53 (11763286_at) / RFU MAGEB2 (11727129_at) / Fold change /veh MAGEB2 (11727129_at) / RFU TMEM200A (11744735_a_at) / Fold change /veh TMEM200A (11744735_a_at) / RFU CCDC152 (11751479_a_at) / Fold change /veh CCDC152 (11751479_a_at) / RFU FAM211A (11726209_a_at) / Fold change /veh FAM211A (11726209_a_at) / RFU RGS16 (11746705_a_at) / Fold change /veh RGS16 (11746705_a_at) / RFU VCAN (11755009_s_at) / Fold change /veh VCAN (11755009_s_at) / RFU RHOB (11743442_s_at) / Fold change /veh RHOB (11743442_s_at) / RFU RGS16 (11720943_a_at) / Fold change /veh RGS16 (11720943_a_at) / RFU RGS16 (11720944_at) / Fold change /veh RGS16 (11720944_at) / RFU, VPS4B / Fold change vs veh, VPS4B / RFU, CREB1 / Fold change vs veh, CREB1 / RFU, DNAJC13 / Fold change vs veh, DNAJC13 / RFU, GNAQ / Fold change vs veh, GNAQ / RFU, CDK5R1 / Fold change vs veh, CDK5R1 / RFU, ZRANB3 / Fold change vs veh, ZRANB3 / RFU, CUL4A / Fold change vs veh, CUL4A / RFU, CCNY / Fold change vs veh, CCNY / RFU, UFL1 / Fold change vs veh, UFL1 / RFU, COG3 / Fold change vs veh, COG3 / RFU, DIAPH2 / Fold change vs veh, DIAPH2 / RFU, SKA2 / Fold change vs veh, SKA2 / RFU, AFF3 / Fold change vs veh, AFF3 / RFU, LMF1 / Fold change vs veh, LMF1 / RFU, IPO11 / Fold change vs veh, IPO11 / RFU, DFFB / Fold change vs veh, DFFB / RFU, FOXP1 / Fold change vs veh, FOXP1 / RFU, CARD8 / Fold change vs veh, CARD8 / RFU, STRN3 / Fold change vs veh, STRN3 / RFU, ADK / Fold change vs veh, ADK / RFU, RASSF2 / Fold change vs veh, RASSF2 / RFU, WIPF1 / Fold change vs veh, WIPF1 / RFU, LARP1B / Fold change vs veh, LARP1B / RFU, RASA1 / Fold change vs veh, RASA1 / RFU, RB1 / Fold change vs veh, RB1 / RFU, PPFIA1 / Fold change vs veh, PPFIA1 / RFU, MAT2A / Fold change vs veh, MAT2A / RFU, CCT5 / Fold change vs veh, CCT5 / RFU, WDR92 / Fold change vs veh, WDR92 / RFU, CUX1 / Fold change vs veh, CUX1 / RFU, TTC7A / Fold change vs veh, TTC7A / RFU, TMEM135 / Fold change vs veh, TMEM135 / RFU, DEPTOR / Fold change vs veh, DEPTOR / RFU, CPM / Fold change vs veh, CPM / RFU, DNAJB6 / Fold change vs veh, DNAJB6 / RFU, CACNA2D3 / Fold change vs veh, CACNA2D3 / RFU, DTX4 / Fold change vs veh, DTX4 / RFU, TFCP2 / Fold change vs veh, TFCP2 / RFU, GMCL1 /// GMCL1P1 / Fold change vs veh, GMCL1 /// GMCL1P1 / RFU, AEBP2 / Fold change vs veh, AEBP2 / RFU, SNHG1 /// SNORD22 /// SNORD25 /// SNORD26 /// SNORD27 /// SNORD28 /// SNORD29 /// SNORD31 / Fold change vs veh, SNHG1 /// SNORD22 /// SNORD25 /// SNORD26 /// SNORD27 /// SNORD28 /// SNORD29 /// SNORD31 / Fold change (Aza/veh), C12orf56 (ProbeSet 11735607_a_at) / Fold change (ACY-1035/veh), C12orf56 (ProbeSet 11735607_a_at) / Fold change (Aza/veh), FGFR1OP (ProbeSet 11751329_s_at) / Fold change (ACY-1035/veh), FGFR1OP (ProbeSet 11751329_s_at) / Fold change (Aza/veh), VPS36 (ProbeSet 11739960_a_at) / Fold change (ACY-1035/veh), VPS36 (ProbeSet 11739960_a_at) / RFU SYPL1 (11715823_x_at) / Fold change /veh SYPL1 (11715823_x_at) / RFU IGFBP7 (11715501_s_at) / Fold change /veh IGFBP7 (11715501_s_at) / RFU REEP3 (11722064_at) / Fold change /veh REEP3 (11722064_at) / RFU IGLL1 (11728026_x_at) / Fold change /veh IGLL1 (11728026_x_at): dose or concentration left out as unconfirmed. The following applies: MV-4-11 cells, 48 hours.

Turning to `Nc1ncn([C@@H]2O[C@H](CO)[C@@H](O)[C@H]2O)c(=O)n1` [azacitidine], the “RFU C10orf10 (11716521_a_at)” value amounted to 42.51 RFU.
